# Reference: patent US6737383B1, “Herbicidal oxadiazolidines” (priority 1999, dated 2004)
# What was measured:
# cocklebur = assay: Test B pre/postemergence cocklebur; type: in vivo, Xanthium strumarium
# Method in brief: (§1)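 Response is a visual 0-to-10 score relative to untreated plants, where 0 means no effect and 10 means complete control, taken twelve to sixteen days after application. Treatments went onto soil at planting and onto foliage of 1- to 4-leaf plants, using a surfactant-containing non-phytotoxic solvent.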
# wild oat = assay: Test B pre/postemergence wild oat; type: in vivo, Avena fatua
# Method in brief: as §1
# velvetleaf = assay: Test B pre/postemergence velvetleaf; type: in vivo, Abutilon theophrasti
# Method in brief: as §1
# corn = assay: Test B pre/postemergence corn; type: in vivo, Zea mays
# Method in brief: as §1
# rice = assay: Test B flood test rice; type: in vivo, Oryza sativa
# Method in brief: (§2)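 Each value is a visual injury score relative to controls, with 10 meaning complete control and 0 no effect. Evaluation took place twelve to sixteen days after the 2-leaf-stage plants were treated and kept in the greenhouse.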
# morningglory = assay: Test B pre/postemergence morningglory; type: in vivo, Ipomoea hederacea
# Method in brief: as §1
# duck salad = assay: Test B flood test duck salad; type: in vivo, Heteranthera limosa
# Method in brief: as §2
# bedstraw = assay: Test B pre/postemergence bedstraw; type: in vivo, Galium aparine
# Method in brief: as §1
# bamyardgrass = assay: Test B flood test barnyardgrass; type: in vivo, Echinochloa crus-galli
# Method in brief: as §2
# crabgrass = assay: Test B pre/postemergence crabgrass; type: in vivo, Digitaria sanguinalis
# Method in brief: as §1
# giant foxtail = assay: Test B pre/postemergence giant foxtail; type: in vivo, Setaria faberii
# Method in brief: as §1
# blackgrass = assay: Test B pre/postemergence blackgrass; type: in vivo, Alopecurus myosuroides
# Method in brief: as §1
# purple nutsedge = assay: Test B pre/postemergence purple nutsedge; type: in vivo, Cyperus rotundus
# Method in brief: as §1
# smallflower flatsedge = assay: Test B flood test smallflower flatsedge; type: in vivo, Cyperus difformis
# Method in brief: as §2
# wheat = assay: Test B pre/postemergence wheat; type: in vivo, Triticum aestivum
# Method in brief: as §1
# soybean = assay: Test B pre/postemergence soybean; type: in vivo, Glycine max
# Method in brief: as §1
# surinam grass = assay: Test B pre/postemergence surinam grass; type: in vivo, Brachiaria decumbens
# Method in brief: as §1
# [1] = Postemergence, Rate 125 g/ha, scale 0 to 10, 0 is no effect, 10 is complete control
# [2] = Preemergence, Rate 62 g/ha, scale of 0 to 10 where 0 is no effect and 10 is complete control
# [3] = Preemergence, Rate 250 g/ha, scale of 0 to 10 where 0 is no effect and 10 is complete control
# [4] = Preemergence, Rate 500 g/ha, scale of 0 to 10 where 0 is no effect and 10 is complete control
# [5] = Rate 62 g/ha, Postemergence, scale 0 to 10 (0 no effect, 10 complete control)
# [6] = Rate 500 g/ha, Postemergence, scale 0 to 10, 0 no effect, 10 complete control
# [7] = Rate 62 g/ha, headed Pre-emergence (flood test species), scale 0 to 10 (0 no effect, 10 complete control)
# [8] = Rate 125 g/ha, Pre-emergence, flood test species, scale 0 to 10 where 0 is no effect and 10 is complete control
# [9] = Rate 250 g/ha, Pre-emergence, flood-test species, scale 0 to 10, 0 is no effect, 10 is complete control
# [10] = Rate 500 g/ha, Pre-emergence, flood test species, scale 0 to 10 (0 no effect, 10 complete control)
# [11] = Rate 250 g/ha, Postemergence, scale of 0 to 10 where 0 is no effect and 10 is complete control
compound,measurement,setting,value
Cc1c(-n2c(=O)on(C(=O)N(c3ccc(F)cc3)C(C)C)c2=O)ccc2ccccc12 [Compound 338],"Plant response rating, Cocklebur",cocklebur; [1],0
same,Cocklebur plant response rating,cocklebur; [2],0
same,Cocklebur plant response rating (0 to 10 scale),"cocklebur; Preemergence, Rate 125 g/ha",0
same,Cocklebur plant response rating,cocklebur; [3],0
same,Cocklebur plant response rating,cocklebur; [4],0
same,Cocklebur plant response rating,cocklebur; [5],0
same,"Plant response rating, Cocklebur",cocklebur; [6],0
same,"Plant response rating, Wild oats",wild oat; [1],0
same,Wild oats plant response rating,wild oat; [2],0
same,Wild oats plant response rating (0 to 10 scale),"wild oat; Preemergence, Rate 125 g/ha",0
same,Wild oats plant response rating,wild oat; [3],0
same,Wild oats plant response rating,wild oat; [4],0
same,Wild oats plant response rating,wild oat; [5],0
same,"Plant response rating, Wild oats",wild oat; [6],0
same,"Plant response rating, Velvetleaf",velvetleaf; [1],0
same,Velvetleaf plant response rating,velvetleaf; [2],0
same,Velvetleaf plant response rating (0 to 10 scale),"velvetleaf; Preemergence, Rate 125 g/ha",0
same,Velvetleaf plant response rating,velvetleaf; [3],0
same,Velvetleaf plant response rating,velvetleaf; [4],0
same,Velvetleaf plant response rating,velvetleaf; [5],0
same,"Plant response rating, Velvetleaf",velvetleaf; [6],0
same,"Plant response rating, Corn",corn; [1],0
same,Corn plant response rating,corn; [2],0
same,Corn plant response rating (0 to 10 scale),"corn; Preemergence, Rate 125 g/ha",0
same,Corn plant response rating,corn; [3],0
same,Corn plant response rating,corn; [4],0
same,Corn plant response rating,corn; [5],0
same,"Plant response rating, Corn",corn; [6],0
same,Rice plant response rating,rice; [7],0
same,Rice plant response rating,rice; [8],0
same,Rice plant response rating,rice; [9],0
same,Rice plant response rating,rice; [10],0
same,"Plant response rating, Morningglory",morningglory; [1],0
same,Morningglory plant response rating,morningglory; [2],0
same,Morningglory plant response rating (0 to 10 scale),"morningglory; Preemergence, Rate 125 g/ha",0
same,Morningglory plant response rating,morningglory; [3],0
same,Morningglory plant response rating,morningglory; [4],0
same,Morningglory plant response rating,morningglory; [5],0
same,"Plant response rating, Morningglory",morningglory; [6],2
same,Ducksalad plant response rating,duck salad; [7],0
same,Ducksalad plant response rating,duck salad; [8],0
same,Ducksalad plant response rating,duck salad; [9],0
same,Ducksalad plant response rating,duck salad; [10],0
same,"Plant response rating, Bedstraw",bedstraw; [1],2
same,Bedstraw plant response rating,bedstraw; [2],0
same,Bedstraw plant response rating (0 to 10 scale),"bedstraw; Preemergence, Rate 125 g/ha",0
same,Bedstraw plant response rating,bedstraw; [3],0
same,Bedstraw plant response rating,bedstraw; [4],0
same,Bedstraw plant response rating,bedstraw; [5],0
same,"Plant response rating, Bedstraw",bedstraw; [11],2
same,"Plant response rating, Bedstraw",bedstraw; [6],5
same,Barnyardgrass plant response rating,bamyardgrass; [7],0
same,Barnyardgrass plant response rating,bamyardgrass; [8],0
same,Barnyardgrass plant response rating,bamyardgrass; [9],0
same,Barnyardgrass plant response rating,bamyardgrass; [10],9
same,"Plant response rating, Crabgrass",crabgrass; [1],0
same,Crabgrass plant response rating,crabgrass; [2],0
same,Crabgrass plant response rating (0 to 10 scale),"crabgrass; Preemergence, Rate 125 g/ha",0
same,Crabgrass plant response rating,crabgrass; [3],0
same,Crabgrass plant response rating,crabgrass; [4],0
same,Crabgrass plant response rating,crabgrass; [5],0
same,"Plant response rating, Crabgrass",crabgrass; [6],0
same,"Plant response rating, Giant foxtail",giant foxtail; [1],0
same,Giant foxtail plant response rating,giant foxtail; [2],0
same,Giant foxtail plant response rating (0 to 10 scale),"giant foxtail; Preemergence, Rate 125 g/ha",0
same,Giant foxtail plant response rating,giant foxtail; [3],0
same,Giant foxtail plant response rating,giant foxtail; [4],9
same,Giant foxtail plant response rating,giant foxtail; [5],0
same,"Plant response rating, Giant foxtail",giant foxtail; [6],0
same,"Plant response rating, Blackgrass",blackgrass; [1],0
same,Blackgrass plant response rating,blackgrass; [2],0
same,Blackgrass plant response rating (0 to 10 scale),"blackgrass; Preemergence, Rate 125 g/ha",0
same,Blackgrass plant response rating,blackgrass; [3],0
same,Blackgrass plant response rating,blackgrass; [4],0
same,Blackgrass plant response rating,blackgrass; [5],0
same,"Plant response rating, Blackgrass",blackgrass; [11],0
same,"Plant response rating, Blackgrass",blackgrass; [6],0
same,"Plant response rating, Nutsedge",purple nutsedge; [1],0
same,Nutsedge plant response rating,purple nutsedge; [2],0
same,Nutsedge plant response rating (0 to 10 scale),"purple nutsedge; Preemergence, Rate 125 g/ha",0
same,Nutsedge plant response rating,purple nutsedge; [3],0
same,Nutsedge plant response rating,purple nutsedge; [4],0
same,Nutsedge plant response rating,purple nutsedge; [5],0
same,"Plant response rating, Nutsedge",purple nutsedge; [6],0
same,S. Flatsedge plant response rating,smallflower flatsedge; [7],0
same,S. Flatsedge plant response rating,smallflower flatsedge; [8],0
same,S. Flatsedge plant response rating,smallflower flatsedge; [9],0
same,S. Flatsedge plant response rating,smallflower flatsedge; [10],0
same,"Plant response rating, Wheat",wheat; [1],0
same,Wheat plant response rating,wheat; [2],0
same,Wheat plant response rating (0 to 10 scale),"wheat; Preemergence, Rate 125 g/ha",0
same,Wheat plant response rating,wheat; [3],0
same,Wheat plant response rating,wheat; [4],0
same,Wheat plant response rating,wheat; [5],0
same,"Plant response rating, Wheat",wheat; [6],0
same,"Plant response rating, Soybean",soybean; [1],1
same,Soybean plant response rating,soybean; [2],0
same,Soybean plant response rating (0 to 10 scale),"soybean; Preemergence, Rate 125 g/ha",0
same,Soybean plant response rating,soybean; [3],0
same,Soybean plant response rating,soybean; [4],0
same,Soybean plant response rating,soybean; [5],1
same,"Plant response rating, Soybean",soybean; [6],2
same,"Plant response rating, B. signalgrass",surinam grass; [1],0
same,B. signalgrass plant response rating,surinam grass; [2],0
same,"B. signalgrass plant response rating (0 to 10 scale, 0 is no effect, 10 is complete control)","surinam grass; Preemergence, Rate 125 g/ha",0
same,B. signalgrass plant response rating,surinam grass; [3],0
same,B. signalgrass plant response rating,surinam grass; [4],0
same,B. signalgrass plant response rating,surinam grass; [5],0
same,"Plant response rating, B. signalgrass",surinam grass; [11],0
same,"Plant response rating, B. signalgrass",surinam grass; [6],0
